Data published in patent US6139864A, “Compositions for common colds” (Sudzucker Aktiengesellschaft, priority 1998, dated 2000).

Key:
[1] = Nephelometric determination of free Zn ions in the presence of polyols; format: physicochemical; details: 35° C., acetate buffer pH=6.0; for Percentage of free (uncomplexed) ions: of total amount, 26 mg Zn in 50 ml; for Zn ions free in solution: standardized to the same Zn ion concentration (26 mg in 50 ml)
Description: 10 ml of zinc gluconate solution (2 g of zinc gluconate and 250 ml of deionized water) are mixed with 10 ml of polyol solution (1.0 g of sugar or sugar alcohol dissolved in 25 ml of deionized water) and 2 ml of acetate buffer (pH=6.0) and thermostatted at 35° C. in a cuvette.
1 molar NaHCO3 solution is subsequently added dropwise in small amounts, and the turbidity is determined using a turbidity photometer.
Isomalt, sucrose, glucose, hard isomalt candies, the zinc gluconate which was used as a source of zinc and two commercial products are compared, the overall amount of Zn ions in each case corresponding to 26 mg in 50 ml of solution.

[2] = Godfrey et al. 1992; Zarembo et al. 1992; U.S. Pat. Nos. 5,409,905 and 5,002,970; cited from earlier work
Staphylococcus aureus = test: Growth of Staphylococcus aureus in CASO medium with added sugar alcohol, optical density OD578 versus control; format: cell-based; details: 16 h, read-out: growth reduced to
Description: Staphylococcus aureus was cultivated at 37° C. in CASO medium to which, in addition to the carbon source glucose (5% strength), isomalt (0.58 M) had been added. The growth of the bacteria cultures in a shaking flask was determined after 16 h by means of the optical density (OD578) and compared with a control (CASO medium without isomalt). It was observed that in all experiments the growth of the cultures which were grown in isomalt was inhibited by more than 50%.

[3] = Dissolution rate of sugar alcohols; format: physicochemical
colds = details: free zinc ions; Mossad et al. 1996, Godfrey et al. 1996; cited from earlier work
rhinoviruses = details: Merluzzi et al. 1989; cited from earlier work

| Compound | Percentage of free (uncomplexed) ions [1] [%] | Zn ions free in solution [1] | other results |
| --- | --- | --- | --- |
| O=C[C@H](O)[C@@H](O)[C@H](O)[C@H](O)CO [Glucose] | 50 | 13.00 mg in 50 ml of solution | – |
| OC[C@H]1O[C@@](CO)(O[C@H]2O[C@H](CO)[C@@H](O)[C@H](O)[C@H]2O)[C@@H](O)[C@@H]1O [Sucrose] | 48 | 12.40 mg in 50 ml of solution | – |
| zinc gluconate [Zn gluconate] | 64 | 14.62 mg in 50 ml of solution | – |
| OC[C@@H](O)[C@@H](O)[C@H](O)[C@H](O)CO [mannitol] | – | – | zinc-complexing action [2]: zinc-complexing action |
| OC[C@@H](O)[C@@H](O)[C@H](O)[C@@H](O)CO [sorbitol] | – | – | activity at 580000 µM (Staphylococcus aureus): ~75%; zinc-complexing action [2]: zinc-complexing action |
| OC[C@@H](O)[C@@H](O)[C@H](O)[C@H](O)CO[C@H]1O[C@H](CO)[C@@H](O)[C@H](O)[C@H]1O [1,1-GPM, 1-O-α-D-glucopyranosyl-D-mannitol] | – | – | dissolution rate compared with 1,6-GPS [3]: considerably lower dissolution rate than 1,6-GPS |
| zinc ions | – | – | duration and severity of the symptoms of colds (colds): markedly reduces both the duration and the severity of the symptoms of colds; antiviral effects (rhinoviruses): antiviral effects are a direct function of the amount of free Zn^2+ ions |
